Entries after “also recorded” stand apart in the source; their conditions may differ.
Experiments:
[1] = percutaneous absorption of formoterol (finding of the inventors); conditions: formoterol and/or salts thereof not in a dissolved state
[2] = hydrolytic stability of formoterol (general statement); format: physicochemical; conditions: preparations having high water contents

For `COc1ccc(CC(C)NCC(O)c2ccc(O)c(NC=O)c2)cc1` (centres unmarked) [formoterol], which percutaneous absorption [1] is on record?
The percutaneous absorption was “extremely poor percutaneous absorption”.

What about the hydrolysis [2] of the same compound?
The hydrolysis was “hydrolyzed; also recorded: easily hydrolyzable”.
